Measured values published in patent US12509431B2, “1,4-dihydroquinazolinone compounds and uses thereof” (Edgewise Therapeutics, Inc., priority 2022, dated 2025).

What was measured:
Type in all cases: biochemical
Conditions in all cases: Table 8
Porcine Atria myofibrils = assay: Myofibril ATPase assay (PK/LDH NADH-coupled), atria myofibrils
Experimental: (§1) Myofibril ATPase Assay Procedure: BSA, ATP, NADH, PEP, and DTT solutions were thawed at room temperature, then transferred to ice. Pellet-frozen myofibrils were transferred with approximately twice the required volume into a sufficiently large tube and capped. Myofibrils were thawed by rolling in a water bath for approximately 15 min at room temperature and cooled on ice. Buffers A and B were prepared by adjusting volumes as necessary for required number of wells and stored on ice. 0.5 μL of the compounds to be assayed were added into wells. 25 μL of Buffer A was dispensed into the wells, followed by 25 μL of Buffer B. The wells were measured for absorbance at 340 nm, using a kinetic protocol in which the wells are read every 1.5-2 min for 75 min. Assay data analysis was performed using a python script that filtered the raw data to retain those points falling between a starting and ending time and between a maximum and minimum absorbance, then used the filtered time-domain 340 nm absorbance data in each well to calculate a slope via linear regression analysis in units of mAU/min. Compound slopes were normalized between 100% and 0% activity, where 100% represented the slope of wells containing only compound vehicle, and fit to a 4-parameter logistic model. In addition to the fit parameters, the EC25% is calculated, relative to the 100% normalized value. In the case of inhibitors, EC50% is also calculated, if available. Fit parameters, calculated effective concentrations, filtered raw data, and calculated slopes were exported, in addition to compound-specific graphs of normalized ATPase activity versus concentration in μM.

[1] = test system: Rabbit Skeletal myofibrils (rabbit psoas muscle); assay: Myofibril ATPase assay (PK/LDH NADH-coupled), skeletal myofibrils
Experimental: (§2) Myofibril ATPase assays are known in the art to be useful in evaluating small molecules for the treatment of HCM and other cardiac indications. Myosin ATPase activity is assessed by using a coupled reaction system, in which ADP generated by the myosin ATPase function is coupled to the disappearance of NADH through the pyruvate kinase/lactate dehydrogenase (PK-LDH) system. ATPase activity produces ADP, which is used as a substrate for PK to produce pyruvate and regenerate ATP. The pyruvate is then used as a substrate by LDH to oxidize NADH to NAD+. The rate of the reaction is monitored through the time-dependent disappearance of NADH using absorbance at 340 nm, which, when the couple system is in stoichiometric excess, is directly correlated to the ATPase activity of the myosin. Inhibition of ATPase activity by the assayed compounds is indicated by a reduced rate of NADH loss, relative to vehicle-treated controls, over the experimental time window. Rabbit Skeletal and Porcine Ventricle are the primary sources of myofibril material.
(§3) Materials: The following stock solutions and reagents were used in the Myofibril ATPase Assay:
(§4) Stock Solutions of pCa buffer. Combine PIPES, CaCl2), and EGTA solutions with water. Adjust pH to 7.0 and bring final volume to 100 mL.
(§5) Buffer A & Buffer B. Prepare buffers A and B according to the table below.
as §1
Skeletal Myofibril Isolation:
Myofibrils from various animals and tissue types were acquired from a variety of sources: rabbit psoas muscle was purchased from Pel-Freez Biologicals (Rogers, AR) and porcine cardiac muscle was purchased from Exemplar Genetics. All myofibrils were prepared using a method based upon those described in Herrmann et al. (1993) and summarized here. Minced tissue was homogenized for 50 sec with a Polytron homogenizer into 10 volumes (relative to weight in grams) of Isolation Buffer A (50 mM Tris, pH 8.0, 0.1 M potassium acetate, 5 mM KCl, 2 mM DTT, 5 mM EDTA, 0.5% v/v Triton X-100) supplemented with 0.1 mM PMSF, 10 μM leupeptin, 5 μM pepstatin, and 0.5 mM sodium azide. The myofibrils were recovered by centrifugation (Beckman Allegra 6R, 1200 g, 10 min) and resuspended in 10 volumes Isolation Buffer B (Buffer A above without protease inhibitors or sodium azide). The myofibrils were further homogenized as before and recovered by centrifugation. […]

[2] = target: T1, Porcine Ventricle myofibrils (left ventricle of Yucatan minipigs) (Sus scrofa, UniProt P79293); assay: Myofibril ATPase assay (PK/LDH NADH-coupled), ventricle myofibrils
T1 construct: Myofibrils from porcine cardiac muscle was isolated from the left ventricle of Yucatan minipigs; tissue Exemplar Genetics; host or cells: left ventricle of Yucatan minipigs
Experimental: as §2, §3, §4, §5, §1
Cardiac Myofibril Isolation:
Myofibrils from porcine cardiac muscle was isolated from the left ventricle of Yucatan minipigs. Myofibrils were prepared using a method based upon those described in Herrmann et al. (1993) and summarized here. Minced tissue was homogenized for 50 sec with a Polytron homogenizer into 10 volumes (relative to weight in grams) of Isolation Buffer A (75 mM KCl, 10 mM Imidazole, 2 mM MgCl2, 2 mM EGTA, 1 mM NaN3, 1% v/v Triton X-100) supplemented with 4 mM Phosphocreatine, 1 mM ATP, 50 mM BDM, 1 mM DTT, 1 mM Benzamide HCl, 0.1 mM PMSF, 10 μM leupeptin, 5 μM pepstatin, and 10 mM EDTA. The myofibrils were recovered by centrifugation (Beckman Allegra 6R, 1200 g, 15 min) and resuspended in 10 volumes Isolation Buffer B (Buffer A above without supplemental reagents). The myofibrils were further homogenized described above and recovered by centrifugation for 7 mins. Cellular membranes and debris were removed by 3 washes in Isolation Buffer B, centrifuging each as before. […]

T1 sequence (P79293 whole entry): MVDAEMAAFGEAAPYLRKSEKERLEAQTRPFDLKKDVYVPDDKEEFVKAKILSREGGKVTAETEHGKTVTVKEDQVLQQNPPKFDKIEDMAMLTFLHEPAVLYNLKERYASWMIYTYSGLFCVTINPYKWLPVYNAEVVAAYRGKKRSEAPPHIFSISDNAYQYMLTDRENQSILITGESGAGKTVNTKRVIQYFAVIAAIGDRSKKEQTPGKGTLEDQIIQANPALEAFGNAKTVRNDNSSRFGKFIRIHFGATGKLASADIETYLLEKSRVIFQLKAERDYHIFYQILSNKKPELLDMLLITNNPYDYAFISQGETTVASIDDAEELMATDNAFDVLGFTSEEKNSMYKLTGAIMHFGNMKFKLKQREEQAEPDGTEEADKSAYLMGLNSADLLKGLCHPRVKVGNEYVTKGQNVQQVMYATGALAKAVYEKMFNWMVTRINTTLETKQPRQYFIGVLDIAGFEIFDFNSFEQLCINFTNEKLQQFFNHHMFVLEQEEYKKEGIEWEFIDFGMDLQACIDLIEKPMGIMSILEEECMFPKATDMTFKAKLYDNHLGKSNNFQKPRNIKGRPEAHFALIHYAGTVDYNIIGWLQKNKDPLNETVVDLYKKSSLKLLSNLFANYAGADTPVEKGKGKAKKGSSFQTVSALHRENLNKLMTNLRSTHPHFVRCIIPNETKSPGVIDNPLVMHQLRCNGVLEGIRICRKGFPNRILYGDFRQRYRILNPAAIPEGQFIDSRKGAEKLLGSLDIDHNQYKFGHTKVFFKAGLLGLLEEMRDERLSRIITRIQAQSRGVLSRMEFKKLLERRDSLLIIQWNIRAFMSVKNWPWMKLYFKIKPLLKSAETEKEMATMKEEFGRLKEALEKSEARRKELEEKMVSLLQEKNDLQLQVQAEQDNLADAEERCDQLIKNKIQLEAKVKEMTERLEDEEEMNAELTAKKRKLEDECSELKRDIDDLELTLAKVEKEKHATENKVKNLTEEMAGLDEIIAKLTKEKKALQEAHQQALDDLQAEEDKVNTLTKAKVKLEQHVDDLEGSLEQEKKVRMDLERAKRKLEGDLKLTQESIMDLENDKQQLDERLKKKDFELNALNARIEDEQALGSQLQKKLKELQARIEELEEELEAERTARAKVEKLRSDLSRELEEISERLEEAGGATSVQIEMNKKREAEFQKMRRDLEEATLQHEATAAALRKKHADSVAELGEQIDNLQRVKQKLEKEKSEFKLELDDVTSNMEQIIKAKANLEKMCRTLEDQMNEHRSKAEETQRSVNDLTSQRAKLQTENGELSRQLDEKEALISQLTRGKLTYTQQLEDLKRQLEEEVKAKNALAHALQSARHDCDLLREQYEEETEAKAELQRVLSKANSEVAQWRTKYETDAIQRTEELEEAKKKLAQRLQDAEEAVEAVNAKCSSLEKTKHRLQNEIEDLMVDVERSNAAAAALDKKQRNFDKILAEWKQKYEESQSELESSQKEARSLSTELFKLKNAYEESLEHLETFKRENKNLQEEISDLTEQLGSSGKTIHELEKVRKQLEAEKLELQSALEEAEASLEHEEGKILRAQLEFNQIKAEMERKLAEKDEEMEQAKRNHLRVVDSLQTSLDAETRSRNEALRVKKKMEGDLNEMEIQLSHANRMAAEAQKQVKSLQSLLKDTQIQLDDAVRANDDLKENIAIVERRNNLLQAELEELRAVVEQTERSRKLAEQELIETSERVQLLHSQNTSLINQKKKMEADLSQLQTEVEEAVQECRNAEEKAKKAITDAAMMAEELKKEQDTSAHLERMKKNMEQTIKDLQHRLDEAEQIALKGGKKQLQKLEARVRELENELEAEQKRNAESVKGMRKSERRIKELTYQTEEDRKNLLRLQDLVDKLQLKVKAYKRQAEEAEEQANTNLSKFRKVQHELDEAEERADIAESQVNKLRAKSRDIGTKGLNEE

## Cc1cc(F)c2c(c1)NC(=O)N(CC(=O)N[C@H](C)c1ccc(C#N)cc1F)C2 [Compound B12]
Porcine Atria myofibrils
  Porcine Atria IC25: 880 nM
[1]
  Rabbit Psoas IC25: 760.6 nM
[2]
  Porcine Ventricle IC25: 143 nM

## Cc1cc(F)c2c(c1)NC(=O)N(CC(=O)N[C@@H](C)c1ccc(C#N)cc1F)C2 [Compound B13, N-[(1S)-1-(4-Cyano-2-fluorophenyl)ethyl]-2-(5-fluoro-7-methyl-2-oxo-1,4-dihydroquinazolin-3-yl)acetamide]
Porcine Atria myofibrils
  Porcine Atria IC25: 60 nM
[1]
  Rabbit Psoas IC25: 13.2 nM
[2]
  Porcine Ventricle IC25: 86 nM

## CCc1cc(F)cnc1[C@@H](C)NC(=O)CN1Cc2c(ccc(F)c2F)NC1=O [Compound B14]
Porcine Atria myofibrils
  Porcine Atria IC25: 150 nM
[1]
  Rabbit Psoas IC25: 93.4 nM
[2]
  Porcine Ventricle IC25: 84.4 nM

## CCc1cc(F)cnc1[C@H](C)NC(=O)CN1Cc2c(ccc(F)c2F)NC1=O [Compound B15]
Porcine Atria myofibrils
  Porcine Atria IC25: 100000 nM
[1]
  Rabbit Psoas IC25: 100000 nM
[2]
  Porcine Ventricle IC25: 100000 nM

## C[C@@H](NC(=O)CN1Cc2c(ccc(F)c2F)NC1=O)c1ccc(C#N)nn1 [Compound B16]
Porcine Atria myofibrils
  Porcine Atria IC25: 230 nM
[1]
  Rabbit Psoas IC25: 1205 nM
[2]
  Porcine Ventricle IC25: 1057 nM

## O=C(CN1Cc2c(ccc(F)c2F)NC1=O)N[C@@H]1CS(=O)(=O)c2cc(F)cc(F)c21 [Compound B18]
Porcine Atria myofibrils
  Porcine Atria IC25: 2250 nM
[1]
  Rabbit Psoas IC25: 100000 nM
[2]
  Porcine Ventricle IC25: 100000 nM

## O=C(CN1Cc2c(ccc(F)c2F)NC1=O)N[C@H]1CS(=O)(=O)c2cc(F)cc(F)c21 [Compound B19]
Porcine Atria myofibrils
  Porcine Atria IC25: 100000 nM
[1]
  Rabbit Psoas IC25: 100000 nM
[2]
  Porcine Ventricle IC25: 100000 nM

## CC(C)c1cc(F)cnc1[C@@H](C)NC(=O)CN1Cc2c(ccc(F)c2F)NC1=O [Compound B20]
Porcine Atria myofibrils
  Porcine Atria IC25: 100000 nM
[1]
  Rabbit Psoas IC25: 100000 nM
[2]
  Porcine Ventricle IC25: 100000 nM

## CC(C)c1cc(F)cnc1[C@H](C)NC(=O)CN1Cc2c(ccc(F)c2F)NC1=O [Compound B21]
Porcine Atria myofibrils
  Porcine Atria IC25: 100000 nM
[1]
  Rabbit Psoas IC25: 100000 nM
[2]
  Porcine Ventricle IC25: 100000 nM

## Cc1cc(C#N)nnc1[C@@H](C)NC(=O)CN1Cc2c(ccc(F)c2F)NC1=O [Compound B22]
Porcine Atria myofibrils
  Porcine Atria IC25: 10830 nM
[1]
  Rabbit Psoas IC25: 901.2 nM
[2]
  Porcine Ventricle IC25: 6451 nM

## Cc1ccnnc1[C@@H](C)NC(=O)CN1Cc2c(ccc(F)c2F)NC1=O [Compound B24]
Porcine Atria myofibrils
  Porcine Atria IC25: 100000 nM
[1]
  Rabbit Psoas IC25: 30610 nM
[2]
  Porcine Ventricle IC25: 100000 nM

## C[C@@H](NC(=O)CN1Cc2cc(F)cc(C#N)c2NC1=O)c1ccc(C#N)cc1F [Compound B26]
Porcine Atria myofibrils
  Porcine Atria IC25: 100000 nM
[1]
  Rabbit Psoas IC25: 100000 nM
[2]
  Porcine Ventricle IC25: 100000 nM

## C[C@H](NC(=O)CN1Cc2cc(F)cc(C#N)c2NC1=O)c1ccc(C#N)cc1F [Compound B27]
Porcine Atria myofibrils
  Porcine Atria IC25: 2100 nM
[1]
  Rabbit Psoas IC25: 542.2 nM
[2]
  Porcine Ventricle IC25: 15590 nM

## C[C@@H](NC(=O)CN1Cc2cc(F)cc(F)c2NC1=O)c1ccc(C#N)cc1F [Compound B28]
Porcine Atria myofibrils
  Porcine Atria IC25: 6240 nM
[1]
  Rabbit Psoas IC25: 100000 nM
[2]
  Porcine Ventricle IC25: 100000 nM

## C[C@H](NC(=O)CN1Cc2cc(F)cc(F)c2NC1=O)c1ccc(C#N)cc1F [Compound B29]
Porcine Atria myofibrils
  Porcine Atria IC25: 110 nM
[1]
  Rabbit Psoas IC25: 124.5 nM
[2]
  Porcine Ventricle IC25: 682.4 nM

## Cc1ccc2c(c1F)CN(CC(=O)N[C@H](C)c1ccc(C#N)cc1F)C(=O)N2 [Compound B30]
Porcine Atria myofibrils
  Porcine Atria IC25: 70 nM
[1]
  Rabbit Psoas IC25: 100000 nM
[2]
  Porcine Ventricle IC25: 100000 nM

## Cc1ccc2c(c1F)CN(CC(=O)N[C@@H](C)c1ccc(C#N)cc1F)C(=O)N2 [Compound B31, N-[(1S)-1-(4-cyano-2-fluorophenyl)ethyl]-2-(5-fluoro-6-methyl-2-oxo-1,4-dihydroquinazolin-3-yl)acetamide]
Porcine Atria myofibrils
  Porcine Atria IC25: 20 nM
[1]
  Rabbit Psoas IC25: 10 nM
[2]
  Porcine Ventricle IC25: 42.1 nM

## C[C@@H](NC(=O)CN1Cc2c(F)cc(Cl)cc2NC1=O)c1ccc(C#N)cc1F [Compound B32]
Porcine Atria myofibrils
  Porcine Atria IC25: 280 nM
[1]
  Rabbit Psoas IC25: 1003 nM
[2]
  Porcine Ventricle IC25: 548 nM

## C[C@H](NC(=O)CN1Cc2c(F)cc(Cl)cc2NC1=O)c1ccc(C#N)cc1F [Compound B33, 2-(7-Chloro-5-fluoro-2-oxo-1,4-dihydroquinazolin-3-yl)-N-[(1S)-1-(4-cyano-2-fluorophenyl)ethyl]acetamide]
Porcine Atria myofibrils
  Porcine Atria IC25: 20 nM
[1]
  Rabbit Psoas IC25: 9.3 nM
[2]
  Porcine Ventricle IC25: 66.7 nM

## Cc1cc([C@@H](C)NC(=O)CN2Cc3c(ccc(F)c3F)NC2=O)ncc1C#N [Compound B34]
Porcine Atria myofibrils
  Porcine Atria IC25: 160 nM
[1]
  Rabbit Psoas IC25: 100000 nM
[2]
  Porcine Ventricle IC25: 3618 nM

## C[C@@H](NC(=O)CN1Cc2c(ccc(F)c2F)NC1=O)c1ncc(F)cc1Cl [Compound B36]
Porcine Atria myofibrils
  Porcine Atria IC25: 20 nM
[1]
  Rabbit Psoas IC25: 10.5 nM
[2]
  Porcine Ventricle IC25: 14.8 nM

## C[C@H](NC(=O)CN1Cc2c(ccc(F)c2F)NC1=O)c1ncc(F)cc1Cl [Compound B37]
Porcine Atria myofibrils
  Porcine Atria IC25: 280 nM
[1]
  Rabbit Psoas IC25: 384.4 nM
[2]
  Porcine Ventricle IC25: 490.1 nM

## Cc1cc(F)cnc1[C@@H](C)NC(=O)CN1Cc2c(ccc(F)c2F)NC1=O [Compound B38]
Porcine Atria myofibrils
  Porcine Atria IC25: 980 nM
[1]
  Rabbit Psoas IC25: 10640 nM
[2]
  Porcine Ventricle IC25: 3820 nM

## Cc1cc(F)cnc1[C@H](C)NC(=O)CN1Cc2c(ccc(F)c2F)NC1=O [Compound B39]
Porcine Atria myofibrils
  Porcine Atria IC25: 20 nM
[1]
  Rabbit Psoas IC25: 20.3 nM
[2]
  Porcine Ventricle IC25: 48.3 nM

## C[C@@H](NC(=O)CN1Cc2cc(F)cc(Cl)c2NC1=O)c1ccc(C#N)cc1F [Compound B40]
Porcine Atria myofibrils
  Porcine Atria IC25: 100000 nM
[1]
  Rabbit Psoas IC25: 100000 nM
[2]
  Porcine Ventricle IC25: 17720 nM

## C[C@H](NC(=O)CN1Cc2cc(F)cc(Cl)c2NC1=O)c1ccc(C#N)cc1F [Compound B41]
Porcine Atria myofibrils
  Porcine Atria IC25: 1740 nM
[1]
  Rabbit Psoas IC25: 85.7 nM
[2]
  Porcine Ventricle IC25: 1384 nM

## C[C@@H](NC(=O)CN1Cc2c(F)cc(F)cc2NC1=O)c1ccc(C#N)cc1F [Compound B42]
Porcine Atria myofibrils
  Porcine Atria IC25: 590 nM
[1]
  Rabbit Psoas IC25: 745.5 nM
[2]
  Porcine Ventricle IC25: 3177 nM

## C[C@H](NC(=O)CN1Cc2c(F)cc(F)cc2NC1=O)c1ccc(C#N)cc1F [Compound B43]
Porcine Atria myofibrils
  Porcine Atria IC25: 40 nM
[1]
  Rabbit Psoas IC25: 15.8 nM
[2]
  Porcine Ventricle IC25: 47.3 nM

## C[C@@H](NC(=O)CN1Cc2cc(F)c(F)cc2NC1=O)c1ccc(C#N)cc1F [Compound B44]
Porcine Atria myofibrils
  Porcine Atria IC25: 450 nM
[1]
  Rabbit Psoas IC25: 4901 nM
[2]
  Porcine Ventricle IC25: 527.8 nM
